Results reported in patent EP0791056B1, “LIPID-CLEAVAGE ENZYME COMPLEX” (priority 1994, dated 1996).

Key:
stimulierten PBL = details: stimulierte PBL, Arner et al., 1992; cited from earlier work
LCE [1] = assay: Influence of enzyme inhibitors or activators on LCE activity, kidney membrane fraction; type: biochemical, Balb/c; details: LCE Membranfraktion Niere (Balb/c)
Protocol: (§1) Das Pipettierschema ist in der folgenden Tabelle angegeben. Tabelle
(§2) Zur Untersuchung der enzymatischen Spaltung in Abhängigkeit von der Substratkonzentration wurde eine Substratstammlösung von 0.98 nmol [^14C]-AZT-DMDOPE und 0.7 nmol AZT-DMDOPE/80 µl Aqua bidest. im LCE-Assay angesetzt. Die verschiedenen Substratkonzentrationen im LCE-Assay wurden durch kontinuierliche Verdopplung bzw. Halbierung des Volumens an Substratlösung eingestellt. Die Ansätze wurden in Glasröhrchen (5 ml) vorgelegt und durch Zugabe der Substratlösung gestartet. Die Inkubation wurde bei 37 °C im Wasserbad unter leichtem Schütteln durchgeführt.
(§3) Die Reaktionsansätze des LCE-Assays wurden nach entsprechender Inkubationszeit dem Wasserbad entnommen, und die Reaktion durch Zugabe von 750 µl 2-Propanol gestoppt. Nach gründlicher Durchmischung wurden die Ansätze anschließend mit 700 µl auf Raumtemperatur erwärmtem n-Heptan versetzt. Die Ansätze wurden erneut für 30 sec gut gemischt und zur Beschleunigung der Phasentrennung in der Minifuge T bei 3200 rpm für 15 min bei Raumtemperatur zentrifugiert. Anschließend wurden 500 µl der oberen Phase (n-Heptan) entnommen und in neue Glasröhrchen (5 ml) mit 10 mg Kieselgel 60 H und 200 µl n-Heptan überführt. Die Ansätze wurden für 30 sec gut durchmischt und zur Sedimentation des Kieselgels für 10 min unter oben genannten Bedingungen zentrifugiert. Vom Überstand wurden anschließend 500 µl entnommen und mit 3 ml Szintillationsflüssigkeit versetzt. Die Messung der Radioaktivität erfolgte für 4 min im Flüssigkeits-Szintillations-Analysator. Zur Bestimmung des Absolutwertes an Radioaktivität wurden 200 µl der Substratlösung mit 3 ml Szintillationsflüssigkeit versetzt und unter gleichen Bedingungen im Flüssigkeits-Szintillations-Analysator gemessen.

Phospholipase C = details: cited from earlier work
LCE [2] = assay: Effect of phospholipase C/D inhibitors and activators on LCE as stated in the description; type: biochemical
LCE [3] = assay: Influence of enzyme inhibitors or activators on LCE activity, CEM-SS membrane fraction; type: biochemical; details: LCE Membranfraktion CEM-SS
Protocol: as §1, §2
as §3, with “Vom Überstand wurden anschließend 500 µl entnommen und mit 3 ml Szintillationsflüssigkeit versetzt. Die Messung der Radioaktivität erfolgte für 4 min im Flüssigkeits-Szintillations-Analysator. Zur Bestimmung des Absolutwertes an Radioaktivität wurden 200 µl der Substratlösung mit 3 ml Szintillationsflüssigkeit versetzt und unter gleichen Bedingungen im Flüssigkeits-Szintillations-Analysator gemessen.” left out

Row | Structure (SMILES) | im Vergleich zu AZT-DP und AZT-TP um Faktor höhere Konzentration an AZT-MP (stimulierten PBL) | Einfluß auf LCE-Aktivität (LCE [1]) | Einfluß auf Phospholipase C (Phospholipase C) | Einfluß auf LCE (Hemmung/Aktivierung) (LCE [2]) | Einfluß auf LCE-Aktivität (LCE [3])
1 | Cc1cn([C@H]2C[C@H](N=[N+]=[N-])[C@@H](COP(=O)(O)O)O2)c(=O)[nH]c1=O [AZT-MP, 3'-Desoxy-3'-azidothymidin-monophosphat] | 40 |  |  |  | 
2 | S=C(S)OC1CC2CC1C1CCCC21 (centres unmarked) [D 609, Tricyclodecan-9-yl-xanthogenat] |  | Stimulation Stimulation | inhibiert | aktiviert | Stimulation Stimulation
